# Patent US12365696B2, “Small-molecule focal adhesion kinase (FAK) inhibitors” (DANA-FARBER CANCER INSTITUTE, INC., priority 2019, dated 2025)
# Read-outs that look alike come from different tables or passages of the source.
# How the values were obtained:
# Assay in all cases: KINOMEscan
# Format in all cases: binding
# [1] = molecular target: TNK2 (Homo sapiens (Human), UniProt Q07912); conditions: TNK2, 10000 nM; read-out: Percent Control
# [2] = molecular target: RSK1(Kin.Dom.1-N-terminal) (Homo sapiens (Human), UniProt Q15418); conditions: 10000 nM, read-out: Percent Control
# [3] = molecular target: PRKD1 (Homo sapiens (Human), UniProt Q15139); conditions: PRKD1, 10000 nM; read-out: Percent Control
# [4] = molecular target: ABL1(H396P)-phosphorylated (Homo sapiens (Human), UniProt P00519, H396P); conditions: 10000 nM, read-out: Percent Control
# [5] = molecular target: RDGFRB (Homo sapiens (Human), UniProt P09619); conditions: 10000 nM, read-out: Percent Control
# [6] = molecular target: CDC2L1 (Homo sapiens (Human), UniProt P21127); conditions: CDC2L1, 10000 nM; read-out: Percent Control
# [7] = molecular target: PIK3CD (Homo sapiens (Human), UniProt O00329); conditions: 10000 nM, read-out: Percent Control
# [8] = molecular target: KIT-autoinhibited (Homo sapiens (Human), UniProt P10721); conditions: 10000 nM, read-out: Percent Control
# KIT-autoinhibited, sequence (P10721 544-976): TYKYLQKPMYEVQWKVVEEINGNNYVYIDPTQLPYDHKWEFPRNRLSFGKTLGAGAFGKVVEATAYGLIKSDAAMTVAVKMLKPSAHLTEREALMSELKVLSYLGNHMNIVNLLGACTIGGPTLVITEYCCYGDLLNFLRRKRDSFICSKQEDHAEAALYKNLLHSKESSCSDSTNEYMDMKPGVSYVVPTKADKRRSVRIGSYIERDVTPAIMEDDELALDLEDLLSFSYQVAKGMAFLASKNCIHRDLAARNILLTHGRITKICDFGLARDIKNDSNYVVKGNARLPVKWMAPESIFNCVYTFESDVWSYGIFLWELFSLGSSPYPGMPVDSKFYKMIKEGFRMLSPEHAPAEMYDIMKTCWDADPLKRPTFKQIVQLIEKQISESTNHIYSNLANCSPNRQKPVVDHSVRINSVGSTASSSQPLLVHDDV
# [9] = molecular target: FRK (Homo sapiens (Human), UniProt P42685); conditions: 10000 nM, read-out: Percent Control
# [10] = molecular target: CSNK1E (Homo sapiens (Human), UniProt P49674); conditions: 10000 nM, read-out: Percent Control
# [11] = molecular target: ERK1 (Homo sapiens (Human), UniProt P27361); conditions: ERK1, 10000 nM; read-out: Percent Control
# [12] = molecular target: FGFR3 (Homo sapiens (Human), UniProt P22607); conditions: FGFR3, 10000 nM; read-out: Percent Control
# FGFR3, sequence (P22607 23-806): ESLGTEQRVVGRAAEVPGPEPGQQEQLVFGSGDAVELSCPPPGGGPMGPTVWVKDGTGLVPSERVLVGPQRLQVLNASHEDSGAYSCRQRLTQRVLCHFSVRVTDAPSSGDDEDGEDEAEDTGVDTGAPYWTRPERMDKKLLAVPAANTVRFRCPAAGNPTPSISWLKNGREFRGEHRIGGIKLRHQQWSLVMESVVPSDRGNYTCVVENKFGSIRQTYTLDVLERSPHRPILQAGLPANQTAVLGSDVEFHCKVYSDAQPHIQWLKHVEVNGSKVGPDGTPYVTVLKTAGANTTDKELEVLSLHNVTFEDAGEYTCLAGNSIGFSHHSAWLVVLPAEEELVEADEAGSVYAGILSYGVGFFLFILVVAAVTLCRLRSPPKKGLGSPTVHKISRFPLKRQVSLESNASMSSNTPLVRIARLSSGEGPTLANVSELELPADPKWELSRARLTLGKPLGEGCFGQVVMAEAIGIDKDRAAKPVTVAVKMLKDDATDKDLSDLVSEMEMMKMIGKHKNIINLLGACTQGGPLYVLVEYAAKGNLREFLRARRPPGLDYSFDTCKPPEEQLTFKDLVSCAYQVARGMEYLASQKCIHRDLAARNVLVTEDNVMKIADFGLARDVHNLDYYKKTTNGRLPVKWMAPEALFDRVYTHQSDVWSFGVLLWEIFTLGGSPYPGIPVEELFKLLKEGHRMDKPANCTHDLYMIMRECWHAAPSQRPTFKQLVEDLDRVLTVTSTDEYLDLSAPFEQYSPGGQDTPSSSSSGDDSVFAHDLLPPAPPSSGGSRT
# [13] = molecular target: PRKCI (Homo sapiens (Human), UniProt P41743); conditions: 10000 nM, read-out: Percent Control
# [14] = molecular target: PIK3CA(E542K) (Homo sapiens (Human), UniProt P42336, E542K); conditions: 10000 nM, read-out: Percent Control
# PIK3CA(E542K), sequence (P42336 whole entry E542K): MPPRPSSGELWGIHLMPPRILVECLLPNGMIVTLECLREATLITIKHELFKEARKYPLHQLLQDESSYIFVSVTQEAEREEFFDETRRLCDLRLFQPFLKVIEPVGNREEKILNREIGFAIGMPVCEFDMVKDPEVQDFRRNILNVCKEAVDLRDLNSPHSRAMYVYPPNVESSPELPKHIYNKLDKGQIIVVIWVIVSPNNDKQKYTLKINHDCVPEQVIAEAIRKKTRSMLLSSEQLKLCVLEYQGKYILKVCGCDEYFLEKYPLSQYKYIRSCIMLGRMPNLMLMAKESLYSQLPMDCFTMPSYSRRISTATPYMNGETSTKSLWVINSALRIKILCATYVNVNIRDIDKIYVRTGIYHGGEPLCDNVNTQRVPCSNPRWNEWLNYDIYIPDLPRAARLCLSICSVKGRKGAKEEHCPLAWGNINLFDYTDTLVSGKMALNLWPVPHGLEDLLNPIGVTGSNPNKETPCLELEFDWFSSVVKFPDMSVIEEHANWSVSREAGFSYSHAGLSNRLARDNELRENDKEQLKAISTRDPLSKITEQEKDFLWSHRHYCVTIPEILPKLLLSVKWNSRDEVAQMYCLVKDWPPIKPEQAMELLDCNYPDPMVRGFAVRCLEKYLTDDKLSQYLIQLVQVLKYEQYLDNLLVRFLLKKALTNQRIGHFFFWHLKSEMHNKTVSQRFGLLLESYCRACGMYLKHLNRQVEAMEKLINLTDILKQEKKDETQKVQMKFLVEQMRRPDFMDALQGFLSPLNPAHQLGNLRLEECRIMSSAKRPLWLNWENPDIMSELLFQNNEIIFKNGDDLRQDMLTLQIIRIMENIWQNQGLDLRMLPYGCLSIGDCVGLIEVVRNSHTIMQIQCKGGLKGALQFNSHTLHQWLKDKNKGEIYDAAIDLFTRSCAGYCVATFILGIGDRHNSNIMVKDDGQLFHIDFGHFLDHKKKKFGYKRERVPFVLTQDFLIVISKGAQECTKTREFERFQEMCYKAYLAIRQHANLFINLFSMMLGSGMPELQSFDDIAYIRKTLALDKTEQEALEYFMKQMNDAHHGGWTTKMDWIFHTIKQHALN
# [15] = molecular target: MEK6 (Homo sapiens (Human), UniProt P52564); conditions: MEK6, 10000 nM; read-out: Percent Control
# MEK6, sequence (P52564 whole entry): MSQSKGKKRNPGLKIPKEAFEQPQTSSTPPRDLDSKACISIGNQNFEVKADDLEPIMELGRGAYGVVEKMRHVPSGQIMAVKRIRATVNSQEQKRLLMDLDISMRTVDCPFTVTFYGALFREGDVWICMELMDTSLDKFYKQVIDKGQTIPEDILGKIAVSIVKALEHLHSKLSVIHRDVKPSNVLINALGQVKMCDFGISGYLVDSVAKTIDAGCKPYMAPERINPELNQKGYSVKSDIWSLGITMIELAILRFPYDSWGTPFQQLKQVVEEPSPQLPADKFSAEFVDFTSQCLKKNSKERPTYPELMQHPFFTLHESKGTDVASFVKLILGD
# [16] = molecular target: PFCDPK1(P. falciparum) (Plasmodium falciparum (isolate 3D7), UniProt P62344); conditions: 10000 nM, read-out: Percent Control
# [17] = molecular target: CSNK1D (Homo sapiens (Human), UniProt P48730); conditions: 10000 nM, read-out: Percent Control
# [18] = molecular target: TRKB (Homo sapiens (Human), UniProt Q16620); conditions: 10000 nM, read-out: Percent Control
# [19] = molecular target: TSSK3 (Homo sapiens (Human), UniProt Q96PN8); conditions: TSSK3, 10000 nM; read-out: Percent Control
# TSSK3, sequence (Q96PN8 whole entry): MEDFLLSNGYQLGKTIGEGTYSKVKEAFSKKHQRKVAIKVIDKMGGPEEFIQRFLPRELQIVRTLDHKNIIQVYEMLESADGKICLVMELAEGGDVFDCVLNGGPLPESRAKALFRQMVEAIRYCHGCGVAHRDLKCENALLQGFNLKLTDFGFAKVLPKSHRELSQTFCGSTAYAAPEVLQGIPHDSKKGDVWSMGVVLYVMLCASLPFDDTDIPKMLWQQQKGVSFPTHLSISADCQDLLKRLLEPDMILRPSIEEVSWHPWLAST
# [20] = molecular target: PIK3CA(Q546K) (Homo sapiens (Human), UniProt P42336, Q546K); conditions: 10000 nM, read-out: Percent Control
# PIK3CA(Q546K), sequence (P42336 whole entry Q546K): as the sequence (P42336 whole entry E542K) above, with K542E, Q546K counted along it
# [21] = molecular target: CLK4 (Homo sapiens (Human), UniProt Q9HAZ1); conditions: CLK4, 10000 nM; read-out: Percent Control
# [22] = molecular target: OSR1 (Homo sapiens (Human), UniProt O95747); conditions: OSR1, 10000 nM; read-out: Percent Control
# [23] = molecular target: PRKG1 (Homo sapiens (Human), UniProt Q13976); conditions: PRKG1, 10000 nM; read-out: Percent Control
# [24] = molecular target: PLK4 (Homo sapiens (Human), UniProt O00444); conditions: PLK4, 10000 nM; read-out: Percent Control
# PLK4, sequence (O00444 whole entry): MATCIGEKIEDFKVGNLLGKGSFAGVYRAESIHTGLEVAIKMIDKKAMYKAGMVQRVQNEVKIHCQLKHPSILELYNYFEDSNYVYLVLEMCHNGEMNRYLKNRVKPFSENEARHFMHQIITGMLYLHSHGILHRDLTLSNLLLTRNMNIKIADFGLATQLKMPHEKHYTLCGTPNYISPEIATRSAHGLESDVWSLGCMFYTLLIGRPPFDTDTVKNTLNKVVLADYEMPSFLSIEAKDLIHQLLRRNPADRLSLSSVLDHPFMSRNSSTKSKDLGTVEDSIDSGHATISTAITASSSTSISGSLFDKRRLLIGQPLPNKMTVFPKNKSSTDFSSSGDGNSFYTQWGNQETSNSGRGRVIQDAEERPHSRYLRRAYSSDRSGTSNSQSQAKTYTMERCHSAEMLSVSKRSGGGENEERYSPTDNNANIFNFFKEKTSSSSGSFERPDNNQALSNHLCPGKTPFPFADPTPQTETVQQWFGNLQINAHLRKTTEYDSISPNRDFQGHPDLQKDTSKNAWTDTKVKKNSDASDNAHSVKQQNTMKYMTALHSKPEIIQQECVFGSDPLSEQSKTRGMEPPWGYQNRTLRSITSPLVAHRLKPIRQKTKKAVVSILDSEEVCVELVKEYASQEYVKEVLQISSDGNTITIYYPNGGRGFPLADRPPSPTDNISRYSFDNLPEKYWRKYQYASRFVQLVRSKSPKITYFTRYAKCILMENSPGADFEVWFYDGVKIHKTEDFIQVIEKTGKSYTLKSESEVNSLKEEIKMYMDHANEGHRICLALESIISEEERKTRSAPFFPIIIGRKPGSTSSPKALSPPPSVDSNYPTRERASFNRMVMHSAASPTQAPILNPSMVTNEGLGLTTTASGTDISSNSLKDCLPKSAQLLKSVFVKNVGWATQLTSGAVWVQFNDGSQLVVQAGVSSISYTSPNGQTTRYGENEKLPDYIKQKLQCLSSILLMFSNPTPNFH
# [25] = molecular target: S6K1 (Homo sapiens (Human), UniProt P23443); conditions: S6K1, 10000 nM; read-out: Percent Control
# [26] = molecular target: PKAC-alpha (Homo sapiens (Human), UniProt P17612); conditions: 10000 nM, read-out: Percent Control
# [27] = molecular target: TNNI3K (Homo sapiens (Human), UniProt Q59H18); conditions: 10000 nM, read-out: Percent Control
# [28] = molecular target: PRKCQ (Homo sapiens (Human), UniProt Q04759); conditions: 10000 nM, read-out: Percent Control
# [29] = molecular target: RIOK2 (Homo sapiens (Human), UniProt Q9BVS4); conditions: RIOK2, 10000 nM; read-out: Percent Control
# [30] = molecular target: LOK (Homo sapiens (Human), UniProt O94804); conditions: 10000 nM, read-out: Percent Control
# [31] = molecular target: CAMK2B (Homo sapiens (Human), UniProt Q13554); conditions: 10000 nM, read-out: Percent Control
# [32] = molecular target: CSK (Homo sapiens (Human), UniProt P41240); conditions: 10000 nM, read-out: Percent Control
# CSK, sequence (P41240 whole entry): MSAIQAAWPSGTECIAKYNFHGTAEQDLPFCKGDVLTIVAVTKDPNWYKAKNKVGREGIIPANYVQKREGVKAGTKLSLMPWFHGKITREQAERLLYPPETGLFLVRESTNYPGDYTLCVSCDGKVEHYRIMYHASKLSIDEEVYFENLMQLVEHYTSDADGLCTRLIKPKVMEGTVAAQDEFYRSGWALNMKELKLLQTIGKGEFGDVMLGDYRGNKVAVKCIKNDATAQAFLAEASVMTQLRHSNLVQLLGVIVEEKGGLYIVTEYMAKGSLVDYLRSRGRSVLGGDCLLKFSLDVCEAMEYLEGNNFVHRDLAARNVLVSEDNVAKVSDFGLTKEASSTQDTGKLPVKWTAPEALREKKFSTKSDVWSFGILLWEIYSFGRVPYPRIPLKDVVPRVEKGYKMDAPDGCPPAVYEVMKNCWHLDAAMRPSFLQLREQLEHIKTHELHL
# [33] = molecular target: CAMK4 (Homo sapiens (Human), UniProt Q16566); conditions: CAMK4, 10000 nM; read-out: Percent Control
# CAMK4, sequence (Q16566 whole entry): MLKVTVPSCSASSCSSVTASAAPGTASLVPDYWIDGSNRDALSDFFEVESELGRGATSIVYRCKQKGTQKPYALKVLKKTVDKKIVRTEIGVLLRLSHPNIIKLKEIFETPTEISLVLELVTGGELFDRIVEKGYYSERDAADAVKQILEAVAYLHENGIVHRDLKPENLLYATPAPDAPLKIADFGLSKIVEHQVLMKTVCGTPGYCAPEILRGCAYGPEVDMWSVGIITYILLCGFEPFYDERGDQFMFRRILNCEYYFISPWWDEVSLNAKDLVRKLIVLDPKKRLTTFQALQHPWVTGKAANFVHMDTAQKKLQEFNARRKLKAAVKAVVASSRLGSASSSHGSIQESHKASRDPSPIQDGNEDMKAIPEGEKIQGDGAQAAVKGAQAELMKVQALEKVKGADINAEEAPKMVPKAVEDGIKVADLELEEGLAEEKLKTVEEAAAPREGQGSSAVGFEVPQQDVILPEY
# [34] = molecular target: PIP5K1C (Homo sapiens (Human), UniProt O60331); conditions: 10000 nM, read-out: Percent Control
# [35] = molecular target: TGFBR1 (Homo sapiens (Human), UniProt P36897); conditions: TGFBR1, 10000 nM; read-out: Percent Control
Structure (SMILES),remaining binding at 10 µM [1],remaining binding at 10 µM [2],remaining binding at 10 µM [3],remaining binding at 10 µM [4],remaining binding at 10 µM [6],remaining binding at 10 µM [7],remaining binding at 10 µM [8],remaining binding at 10 µM [9],remaining binding at 10 µM [10],remaining binding at 10 µM [11],remaining binding at 10 µM [12],remaining binding at 10 µM [13],remaining binding at 10 µM [14],remaining binding at 10 µM [15],remaining binding at 10 µM [16],remaining binding at 10 µM [17],remaining binding at 10 µM [18],remaining binding at 10 µM [19],remaining binding at 10 µM [20],remaining binding at 10 µM [21],also measured
"COc1cc(N2CCC(N3CCN(C)CC3)CC2)ccc1Nc1ncc2c(n1)N(C)c1sc(C)nc1C(=O)N2 [Compound 3, 6-((2-methoxy-4-(4-(4-methylpiperazin-1-yl)piperidin-1-yl)phenyl)amino)-2,4-dimethyl-4,9-dihydro-10H-pyrimido[5,4-b]thiazolo[5,4-e][1,4]diazepin-10-one]",20%,78%,78%,19%,74%,98%,100%,37%,82%,88%,92%,73%,100%,100%,100%,54%,100%,98%,100%,76%,remaining binding at 10 µM ([5]; RDGFRB): 50%; remaining binding at 10 µM [22]: 100%; remaining binding at 10 µM [23]: 93%; remaining binding at 10 µM [24]: 81%; remaining binding at 10 µM [25]: 100%; remaining binding at 10 µM [26]: 72%; remaining binding at 10 µM [27]: 79%; remaining binding at 10 µM [28]: 89%; remaining binding at 10 µM [29]: 82%; remaining binding at 10 µM [30]: 84%; remaining binding at 10 µM [31]: 81%; remaining binding at 10 µM [32]: 85%; remaining binding at 10 µM [33]: 98%; remaining binding at 10 µM [34]: 99%; remaining binding at 10 µM [35]: 88%
"COc1cc(N2CCC(N3CCN(C)CC3)CC2)ccc1Nc1ncc2c(n1)N(C)c1sc(C)nc1C(=O)N2C [Compound 5, 6-((2-methoxy-4-(4-(4-methylpiperazin-1-yl)piperidin-1-yl)phenyl)amino)-2,4,9-trimethyl-4,9-dihydro-10H-pyrimido[5,4-b]thiazolo[5,4-e][1,4]diazepin-10-one]",87%,83%,43%,100%,100%,92%,100%,99%,100%,92%,98%,97%,93%,98%,99%,87%,100%,98%,94%,85%,remaining binding at 10 µM ([5]; PDGFRB): 100%; remaining binding at 10 µM [22]: 100%; remaining binding at 10 µM [23]: 100%; remaining binding at 10 µM [24]: 19%; remaining binding at 10 µM [25]: 100%; remaining binding at 10 µM [26]: 100%; remaining binding at 10 µM [27]: 88%; remaining binding at 10 µM [28]: 88%; remaining binding at 10 µM [29]: 100%; remaining binding at 10 µM [30]: 99%; remaining binding at 10 µM [31]: 93%; remaining binding at 10 µM [32]: 100%; remaining binding at 10 µM [33]: 100%; remaining binding at 10 µM [34]: 95%; remaining binding at 10 µM [35]: 100%
